Drawing on PubChem BioAssay (NCI), this text covers TGI and GI50 for 30 molecules.

Structures are written as SMILES. Several values for one entry are separate records, joined by “and”; a condition that tells them apart may be missing. Equal values may be shown once.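 Interpolation was linear, between the two tested concentrations surrounding the appropriate level; five concentrations were tested over 48 hours in 96-well plates. GI50: concentration for 50% inhibition of growth. Definition used: TGI = concentration required for complete inhibition of growth.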

For orientation: TGI means the concentration at which net growth stops. A low value points to greater sensitivity of the cells. In general, GI50 refers to the concentration giving 50% growth inhibition.

In the first assay the test system is XF 498 CNS. The assay is described as follows: DTP human tumour cell line panel, 48 h.
Take `COc1cccc(/C=C2\CCC(C)(CN(C)C)C2=O)c1` (centres undefined): the TGI was more than 100 µM.

As for `Cl[Si]1(Cl)Oc2ccccc2O[Si](Cl)(Cl)Oc2ccccc2O1`, the TGI was found to be 30.3 µM. In the case of `C[n+]1c2ccccc2cc2c(CNC(CCCN=C(N)N)C(=O)O)cccc21` (centres undefined), the GI50 was 2.46 µM; the TGI is 3.5 µM and 4.02 µM. As for `C=CCC1[C@@H](C(C)(C)C(C(C)=O)C(=O)C(=O)OC)OC(C(C)(C)C)N1C(=O)OC` (some centres undefined), the TGI was more than 100 µM. Same read-out and setting: the result for `CCOC(=O)C(=O)Nc1ccccc1C(F)(F)F` reads more than 100 µM. Same read-out and setting: the same measure for `COc1ccc(Nc2nc3ccccc3nc2-c2cccs2)cc1`: more than 100 µM; for `CCOC(=O)/C(=C/c1cccc(OC)c1)N(CC)CC`: more than 100 µM; for `COc1c(Br)cc(Br)c(OC)c1-c1[nH]c(Br)c(Br)c1Br`: 14.3 µM.

The molecule `CCOC(=O)c1ccc(N[C@@H]2c3cc4c(cc3C(C3=CC(=O)C(=O)C(OC)=C3)[C@H]3C(=O)OCC32)OCO4)cc1` (some centres undefined) displayed a TGI of 9.38 µM.

In the case of `CNC(SC)=C1C(=O)OC(C)(C)OC1=O`, the TGI was more than 100 µM. Same read-out and setting: the same measure for `CC(CC(=O)Nc1ccc(NC(=O)CC(C)N=NC(N)=S)cc1)N=NC(N)=S` (centres undefined): more than 100 µM; for `Cc1c(C(=O)CSc2nc3ccccc3c(=O)n2-c2ccccc2)c(=O)n(-c2ccccc2)n1C`: more than 100 µM. On the same count and under the same terms, the result for `COC(=O)/C(C#N)=C1\CCC(C(=O)OC)N1C` (centres undefined) reads more than 100 µM. As for `CC(=O)OC1COC(n2c(=S)n(-c3ccccc3)c(=O)c3cc(Br)ccc32)C(OC(C)=O)C1OC(C)=O` (centres undefined), the TGI turned out to be 45.2 µM. `CC1=C(C(=O)Nc2ccccc2C)C(/C=C/c2ccccc2)C(C(=O)Nc2ccccc2C)=C(C)N1` came in with a TGI of more than 100 µM. The same measure, in the same setting: the result for `CC(=O)OCC1OC(n2cc([N+](=O)[O-])c(=O)[nH]c2=O)C(OC(C)=O)C(OC(C)=O)C1OC(C)=O` (centres undefined) reads more than 100 µM. The molecule `O=C1C=C(O)c2[nH]c(=O)ccc2C1=O` showed a TGI of more than 100 µM. On the same count and under the same terms, the same measure for `O=C1C2=C(c3ccccc31)C(c1ccccc1Cl)N1C(=O)CCSC1=N2` (centres undefined): more than 100 µM.

Another assay deals with MDA-MB-435. The assay is described as follows: DTP human tumour cell line panel, 48 h.
On to `Cc1cc2c(Br)cc(Br)c(O)c2nc1C(=O)c1ccccc1`, for which the total growth inhibition concentration (TGI) is more than 100 µM.

As to `CC1CCCc2c1nn(C(=O)/C=C(\N)c1ccccc1)c2N` (centres undefined), the GI50 was 10.7 µM and the TGI turned out to be 26.5 µM.

As for `CCSc1nc(N)c2cn[nH]c2n1`, the GI50 is 30.8 µM and the TGI is more than 100 µM.

In the case of `O=c1c2c3c(sc2n2c(-c4cc(-c5ccccc5)nn4-c4ccccc4)nnc2n1Cc1ccccc1)CCCC3`, the GI50 is more than 100 µM and the TGI was more than 100 µM.

For `C[C@H]1[C@H](C)CC[C@]2(C(=O)NCCNCCN)CC[C@]3(C)C(=CC[C@@H]4[C@@]5(C)CCC(=O)C(C)(C)[C@@H]5CC[C@]43C)[C@H]12`, the GI50 was 1.73 µM and the TGI is 3.23 µM. Regarding `COc1ccc(CC(C)C(C)Cc2ccc(OC)c(OC)c2)cc1OC` (centres undefined), the GI50 was more than 1400 µM and the TGI was more than 1400 µM. The molecule `Cc1ccc2c(c1)Sc1ccc(N=NN(C)C)cc1N2C` yielded a TGI of more than 100 µM. Turning to `Cc1ncc(C(=O)Nc2ccc(CN3CCN(C)CC3)c(C(F)(F)F)c2)cc1C#Cc1cnc(NC2CC2)c2ncccc12`, the GI50 is 0.513 µM and the TGI was 0.963 µM.

Turning to `C=CCO/N=C/c1cc(NC(=S)c2ccoc2C)ccc1Cl`, the TGI came to 54.4 µM. In other words, the double-digit micromolar range.

In the case of `CCCCCCCCCCN=C(c1ccc(N(C)C)cc1)c1ccc(N(C)C)cc1`, the GI50 is 0.0726 µM and the TGI came to 0.332 µM. On the same counts, the results for `CCCCCCCCCCCCCCCCCCNC(=O)[C@H]1CSC(c2cccs2)N1` (some centres undefined) are 0.77 µM and 1.53 µM. Taken in the same sequence, the figures for `Cn1c2ccccc2c2c(=O)c3ccccc3[nH]c21` were 70.2 µM and more than 100 µM.

A further assay has as its system DU-145 prostate. The assay is described as follows: DTP human tumour cell line panel, 48 h.
On to `Cc1cc2c(Br)cc(Br)c(O)c2nc1C(=O)c1ccccc1`, for which the TGI is more than 100 µM.

On to `CC1CCCc2c1nn(C(=O)/C=C(\N)c1ccccc1)c2N` (centres undefined), for which the GI50 is 14.5 µM and the TGI is more than 100 µM. On the same counts, the results for `CCSc1nc(N)c2cn[nH]c2n1` are 46.2 µM and more than 100 µM. Taken in the same sequence, the figures for `O=c1c2c3c(sc2n2c(-c4cc(-c5ccccc5)nn4-c4ccccc4)nnc2n1Cc1ccccc1)CCCC3` were more than 100 µM and more than 100 µM.

On to `C[C@H]1[C@H](C)CC[C@]2(C(=O)NCCNCCN)CC[C@]3(C)C(=CC[C@@H]4[C@@]5(C)CCC(=O)C(C)(C)[C@@H]5CC[C@]43C)[C@H]12`, for which the GI50 is 1.8 µM and the TGI amounted to 3.35 µM. Taken in the same sequence, the figures for `COc1ccc(CC(C)C(C)Cc2ccc(OC)c(OC)c2)cc1OC` (centres undefined) were more than 1400 µM and more than 1400 µM. The molecule `Cc1ccc2c(c1)Sc1ccc(N=NN(C)C)cc1N2C` came in with a TGI of more than 100 µM. With `Cc1ncc(C(=O)Nc2ccc(CN3CCN(C)CC3)c(C(F)(F)F)c2)cc1C#Cc1cnc(NC2CC2)c2ncccc12`, the GI50 is 0.65 µM and the concentration for total growth inhibition (TGI) is 1.22 µM. `C=CCO/N=C/c1cc(NC(=S)c2ccoc2C)ccc1Cl` showed a TGI of 27.8 µM. For `CCCCCCCCCCN=C(c1ccc(N(C)C)cc1)c1ccc(N(C)C)cc1`, the GI50 is 2.42 µM and the TGI was more than 83 µM. Taken in the same sequence, the figures for `CCCCCCCCCCCCCCCCCCNC(=O)[C@H]1CSC(c2cccs2)N1` (some centres undefined) were 2.91 µM and more than 50 µM.
